Data taken from patent publication US5112863A, “Antipsychotic drug” (Nippon Oil & Fats Co., Ltd., priority 1989, dated 1992).

Legend:
[1] = system: GABA system; conditions: via a GABA system; Japanese Patent Publications; Biochemical Pharmacol., 32, 2751-2755, 1983; cited from earlier work
[2] = system: Wistar rats; assay: Antipsychotic action test: phencyclidine-induced locomotor activity and stereotypy (method of Sturgen et al.); assay type: in vivo; conditions: for Effect on locomotor activity and stereotypy score compared with NMD-Ser and NMD-Ala: phencyclidine-dosed rats, dose not stated; for Locomotor activity score / Stereotypy score: 10 min before phencyclidine 10 mg/kg i.p., 30 minutes, grades 0-5; for Dose dependence of locomotor activity and stereotypy score: 30 minutes after pretreatment and dosage of phencyclidine; for Control of locomotor activity and stereotypy score: group dosed 100 mg/kg; for Statistical significance of lowering of locomotor activity and stereotypy score: group dosed more than 50 mg/kg, P<0.01
Experimental: (§1) Method: the action of antipsychotic was estimated by a method of Sturgen et al. (Eur. J. Pharmacol 76, 37-53, 1981). Namely, medicines suspended in 0.1% Tween 80 were dosed in the abdomen of Wistar rats (Weight: 200-250 g, 6 rats/group). After ten minutes, phencyclidine dissolved in physiological saline (10 mg/kg) was dosed intraperitoneally. After ten minutes, locomotor activity and stereotypy score were estimated at intervals of 20 minutes by 6 grades.
1. Sometimes, movement within localized area of cage.
2. Movement over a small area of cage, intermittent activity emitted at a low-moderate rate.
3. Movement over a small area of cage, activity emitted continuously and at a moderate-rapid rate.
4. Movement over a large area of cage, activety is intermittent and emitted at a low-moderate rate.
5. Movement over a large area of cage, activety is emitted continuously and at a moderate-rapid rate.
1. Locomotor activity, sniffing and grooming more frequent than observed for control.
2. Higher frequency of sniffing, rearing or turning than in 1.
3. Moderate rate and intermittent sniffing, rearing, turning or backpedaling.
4. Rapid rate and continuous turning, backpedaling, sniffing.
5. Dyokinetic extension and flexion of limbs, head and neck.

[3] = system: glycine binding site; assay: Intracranial administration with 7-chlorokynurenic acid, phencyclidine-induced locomotor activity and stereotypy; assay type: in vivo, rats; conditions: 200 mg/kg with 7-chlorokynurenic acid (allosteric antagonist of glycine binding site) dosed in the brain
Experimental: as §1
Rats were anesthetized with pentobarbital (40 mg/kg, intruperitoneally) and mounted on a stereotaxic frame. For the intracranical administration of 7-chlorokynurenicocid, the guide cannulae were fixed to the skull. Beginning 5-7 days after surgery, bilateral intracranial injections were performed in the non-anesthetized rats with cannulae attached by poly ethylene tubes to two 10 μl Hamilton syringes. The injection site was A.P. -0.8 (anterior to bregma), V. +2.0, L.±1.5 according to the atlas of Paxinos and Watson (1982). The medicine 5 μl was injected in four minutes a minute after inserting the needle. After the injection the injection needle was kept in the brain for five minutes and removed. After ten minutes from the beginning of the injection, phencyclidine was dosed intraperitoneally.

[4] = background statement; cited from earlier work
[5] = dosed in a living body; background statement; cited from earlier work

CCCCCNCC(N)=O [2-n-pentyl amino aceto amide]
Anticonvulsant functions for convulsion induced with bicuculline [1]: anticonvulsant functions

CCCCC(=O)NCC(=O)O [2-pentanoyl amino acetic acid]
Anticonvulsant functions for convulsion induced with bicuculline [1]: anticonvulsant functions

CCCCCCCC/C=C\CCCCCCCC(=O)N[C@H](CO)C(=O)O [N-oleoyl-D-serine]
Effect on locomotor activity and stereotypy score compared with NMD-Ser and NMD-Ala [2]: the same effect is observed

CCCCC(=O)N[C@H](CO)C(=O)O [N-pentanoyl-D-serine]
Effect on locomotor activity and stereotypy score compared with NMD-Ser and NMD-Ala [2]: the same effect is observed

CCCCCCCCCCCCCC(=O)N[C@H](C)C(=O)O [NMD-Ala, N-myristoyl-D-alanine]
Locomotor activity score ([2]; 1 mg/kg i.p.): 2.8 ± 0.2
Stereotypy score ([2]; 1 mg/kg i.p.): 3.0 ± 0.4
Locomotor activity score ([2]; 10 mg/kg i.p.): 2.4 ± 0.4
Stereotypy score ([2]; 10 mg/kg i.p.): 2.4 ± 0.2
Locomotor activity score ([2]; 50 mg/kg i.p., P < 0.01): 2.2 ± 0.4
Stereotypy score ([2]; 50 mg/kg i.p., P < 0.01): 2.0 ± 0.3
Locomotor activity score ([2]; 100 mg/kg i.p., P < 0.01): 0.7 ± 0.3
Stereotypy score ([2]; 100 mg/kg i.p., P < 0.01): 0.8 ± 0.3
Locomotor activity score ([2]; 200 mg/kg i.p., P < 0.01): 1.5 ± 0.3
Stereotypy score ([2]; 200 mg/kg i.p., P < 0.01): 1.3 ± 0.4
Dose dependence of locomotor activity and stereotypy score [2]: the scores lessen with the decrease of the dose
Control of locomotor activity and stereotypy score [2]: nearly controlled
Statistical significance of lowering of locomotor activity and stereotypy score [2]: statistical significant difference (P<0.01) is found

CCCCCCCCCCCCCC(=O)N[C@H](CO)C(=O)O [NMD-Ser, N-myristoyl-D-serine]
Locomotor activity score ([2]; 1 mg/kg i.p.): 3.7 ± 0.2
Stereotypy score ([2]; 1 mg/kg i.p.): 3.2 ± 0.3
Locomotor activity score ([2]; 10 mg/kg i.p.): 3.3 ± 0.2
Stereotypy score ([2]; 10 mg/kg i.p.): 3.2 ± 0.3
Locomotor activity score ([2]; 50 mg/kg i.p., P < 0.01): 2.0 ± 0.3
Stereotypy score ([2]; 50 mg/kg i.p., P < 0.01): 1.7 ± 0.2
Locomotor activity score ([2]; 100 mg/kg i.p., P < 0.01): 1.5 ± 0.5
Stereotypy score ([2]; 100 mg/kg i.p., P < 0.01): 1.2 ± 0.3
Locomotor activity score ([2]; 200 mg/kg i.p., P < 0.01): 1.5 ± 0.3
Stereotypy score ([2]; 200 mg/kg i.p., P < 0.01): 1.5 ± 0.2
Dose dependence of locomotor activity and stereotypy score [2]: the scores lessen with the decrease of the dose
Control of locomotor activity and stereotypy score [2]: nearly controlled
Statistical significance of lowering of locomotor activity and stereotypy score [2]: statistical significant difference (P<0.01) is found
Locomotor activity and stereotypy score observed at a dose of N-myristoyl-D-serine alone, when dosed with 7-chlorokynurenic acid [3]: are not observed

CN(C)CCCN1c2ccccc2Sc2ccc(Cl)cc21 [chlorpromazine]
Side effect [4]: unsatisfactorily side effect, for example, myogelosis, mouth dry, sleepiness and constipation

NCC(=O)O [glycine]
Passage through blood brain barrier [5]: can not pass through blood brain barrier
